Test results from patent publication US10208034B2, “Quinoline derivative” (ONO PHARMACEUTICAL CO., LTD., priority 2014, dated 2019).
pIC50: −log10 of the molar value.

Target: T1, Axl enzyme (Homo sapiens, UniProt P30530)
T1 sequence (P30530 26-894): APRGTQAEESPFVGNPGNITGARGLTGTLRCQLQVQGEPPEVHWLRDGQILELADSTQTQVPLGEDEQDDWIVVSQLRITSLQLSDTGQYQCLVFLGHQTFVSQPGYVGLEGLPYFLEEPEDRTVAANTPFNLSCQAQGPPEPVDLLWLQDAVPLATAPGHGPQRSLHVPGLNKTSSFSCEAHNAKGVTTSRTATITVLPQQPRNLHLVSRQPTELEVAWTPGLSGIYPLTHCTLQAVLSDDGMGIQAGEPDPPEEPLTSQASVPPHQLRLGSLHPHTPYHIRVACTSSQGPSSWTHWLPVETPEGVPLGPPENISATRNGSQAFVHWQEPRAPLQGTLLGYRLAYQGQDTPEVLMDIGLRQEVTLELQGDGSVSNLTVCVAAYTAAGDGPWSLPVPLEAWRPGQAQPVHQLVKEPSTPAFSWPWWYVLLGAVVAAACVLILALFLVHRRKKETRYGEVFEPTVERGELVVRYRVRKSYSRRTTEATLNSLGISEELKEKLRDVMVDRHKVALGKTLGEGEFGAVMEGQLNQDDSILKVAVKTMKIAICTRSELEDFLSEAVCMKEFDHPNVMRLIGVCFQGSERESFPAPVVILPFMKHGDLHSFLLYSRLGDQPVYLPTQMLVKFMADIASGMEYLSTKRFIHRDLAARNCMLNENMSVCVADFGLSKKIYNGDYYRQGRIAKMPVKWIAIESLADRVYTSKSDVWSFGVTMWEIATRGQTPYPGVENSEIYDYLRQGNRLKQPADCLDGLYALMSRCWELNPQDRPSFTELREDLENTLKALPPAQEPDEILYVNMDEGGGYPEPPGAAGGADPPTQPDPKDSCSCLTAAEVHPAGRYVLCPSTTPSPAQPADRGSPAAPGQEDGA
Test: Measurement of Axl inhibitory activity (LanthaScreen TR-FRET, in vitro test)
Format: biochemical
Details: Fluorescein-Poly GT substrate
Method: Axl enzyme inhibitory activity was measured by using LanthaScreen (registered trademark) system (Invitrogen) based on the attached instruction. The reagents used are shown below.
Reaction buffer solution: a solution containing 50 mmol/L HEPES (pH7.5), 0.01% Brij35, 10 mmol/L MgCl2 and 1 mmol/L EGTA was prepared by using purified water.
Test substance solution: a solution containing a test compound of 5-fold concentration with respect to the final concentration was prepared by 20-fold diluting a DMSO solution of test compound of each concentration with the reaction buffer solution.
Enzyme solution: a solution containing 400 ng/mL Axl enzyme was prepared by using the reaction buffer solution.
Substrate solution: a solution containing 45 μmol/L ATP and 500 nmol/L Fluorescein-Poly GT (Invitrogen) was prepared by using the reaction buffer solution.
Detection solution: a solution containing 20 mM EDTA and 4 nM PY20 (Invitrogen) was prepared by using Dilution B (Invitrogen).
A 10 mmol/L DMSO solution of the test compound was dispensed into a 96-well plate (Nunc), and, furthermore, a 3-fold dilution series was prepared using DMSO. In each well of the 96-well plate for measurement, 5 μL each of the reaction buffer solution containing DMSO was added to a Blank group and a medium group, and 5 μL of the test substance solution was added to the test substance group, respectively. Next, 10 μL/well of the reaction buffer solution was added to the Blank group, and 10 μL/well each of the enzyme solution was added to the medium group and the test compound group, followed by stirring at room temperature for 10 min. After the completion of stirring, 10 μL each of the substrate solution was added into each well, followed by stirring at room temperature with light shielded for one hour. After the completion of reaction, 25 μL each of the detection solution was added to each well, and stood still at room temperature with light shielded for 30 min. After standing sill, fluorescence intensity at 520 nm and 495 nm at the time of irradiation with exciting light of 340 nm was measured by using Analyst GT (Molecular Devices). The phosphorylation of the artificial substrate was quantified by Time-resolved Fluorescence Resonance Energy Transfer (TR-FRET). TR-FRET ratio was calculated by dividing 520 nm fluorescence signal by 495 nm fluorescence signal for each well, and the inhibition rate (%) in the test compound group was calculated based on the following mathematical formula. Inhibition rate (%)=[1−(TR-FRET ratio of test compound group−A)/(B−A)×100 [Math. 1] A: average value of TR-FRET ratios of Blank group B: average value of TR-FRET ratios of medium group
Values of 50% inhibition rate (IC50 values) of the test compound were calculated from the inhibition curve based on the inhibition rate of the test compounds in each concentration.

Row | pIC50 | Compound
1 | 8.82 | COc1cc2nccc(Oc3ccc(NC(=O)c4cc(C(C)=O)cn(-c5ccccc5)c4=O)nc3)c2cc1OC [Example 21, 5-acetyl-N-{5-[(6,7-dimethoxy-4-quinolinyl)oxy]-2-pyridinyl}-2-oxo-1-phenyl-1,2-dihydro-3-pyridinecarboxamide]
2 | 8.89 | COc1cc2nccc(Oc3ccc(NC(=O)c4cc5ccncc5n(-c5ccccc5)c4=O)nc3)c2cc1OC [Example 28, N-{5-[(6,7-dimethoxy-4-quinolinyl)oxy]-2-pyridinyl}-2-oxo-1-phenyl-1,2-dihydro-1,7-naphthyridine-3-carboxamide]
3 | 8.46 | COc1cc2nccc(Oc3ccc(NC(=O)c4c5c(cn(-c6ccccc6)c4=O)C(=O)CCC5)nc3)c2cc1OC [Example 42, N-{5-[(6,7-dimethoxy-4-quinolinyl)oxy]-2-pyridinyl}-3,8-dioxo-2-phenyl-2,3,5,6,7,8-hexahydro-4-isoquinolinecarboxamide]
4 | 8.82 | COc1cc2nccc(Oc3ccc(NC(=O)c4cc5c(n(-c6ccccc6)c4=O)CCCNC5=O)nc3)c2cc1OC [Example 66, N-{5-[(6,7-dimethoxy-4-quinolinyl)oxy]-2-pyridinyl}-2,5-dioxo-1-phenyl-2,5,6,7,8,9-hexahydro-1H-pyrido[3,2-c]azepine-3-carboxamide]
